Measurements: article PMC7156736, “Phase 1 study of the pan-HER inhibitor dacomitinib plus the MEK1/2 inhibitor PD-0325901 in patients with KRAS-mutation-positive colorectal, non-small-cell lung and pancreatic cancer” (British Journal of Cancer, 2020)
Read-outs that look alike come from different tables or passages of the source.

How the values were obtained:
[1] = plasma pharmacokinetics in patients (HPLC–MS/MS, non-compartmental analysis); type: in vivo, human; details: for AUC(0-t) / Cmax / Tmax: human, plasma, oral; for AUC(0-t): read-out: AUC0-24h dacomitinib, mean (CV%); for Cmax: read-out: Cmax dacomitinib, mean (CV%); for Tmax: read-out: tmax dacomitinib, mean
Procedure: For pharmacokinetic analyses, serial blood samples were obtained from all patients prior to treatment administration on day 1, and 1, 2, 3, 4, 6, 8, 12, 24, 72 and 144 h after the first dose. On day 1 of cycle 2, blood samples were drawn before and 1, 2, 3, 4, 6, 8, 12 and 24 h after administration. Plasma samples were assayed using a validated high-performance liquid chromatography– tandem mass spectrometry method (HPLC–MS/MS). Briefly, dacomitinib and PD-0325901 were extracted from plasma by protein precipitation with a mixture of acetonitrile/methanol (1:1 v/v). Compounds were chromatographically separated using a Waters Xbridge BEH Phenyl column (50 ×2.1-mm ID, 5-μm particle size), and detection was performed using an API4000 tandem mass spectrometer equipped with a turbo ion spray interface, operating in the positive ion mode. Transitions from m/z 480 to 329 and m/z 489 to 255 were monitored for the detection of dacomitinib and PD-0325901, respectively. Stable isotope-labelled internal standards were used for the quantification. The lower and upper limits of quantification were, respectively, 0.5 and 50 ng/ml for dacomitinib, and 5 and 500 ng/ml for PD-0325901. Pharmacokinetic parameters were calculated in R using an in-house-developed validated script for non-compartmental pharmacokinetic analyses (version 3.6.0).[9]

[2] = test system: patients with KRASm CRC, NSCLC or pancreatic cancer; type: in vivo; details: dacomitinib QD continuous, PD-0325901 BID 21 days on/7 days off
Description: . The starting doses were based on previous data from single-agent Phase 1 studies with both compounds, taking into account the potential for synergistic toxicity. […]. Dose-escalation decisions were based on safety evaluation of all evaluable patients, performed after completion of the first treatment cycle. Patients were considered evaluable for the dose-determining part of this study if at least one cycle of study treatment was completed, with the minimum safety evaluation conducted, and at least one administration of both drugs received, or if dose-limiting toxicity (DLT) had occurred during the first cycle. If one out of three patients experienced a DLT, the number of patients treated at that dose level was expanded to a maximum of six. […] Patients were continuing study treatment until disease progression, unacceptable toxicity or investigator/patient decision to discontinue.
Safety was monitored throughout the treatment by physical examination, laboratory assessments, electrocardiography, ophthalmic evaluation and collection of adverse events. Adverse events were recorded according to the Common Terminology Criteria for Adverse Events version 4.0. All adverse events that were possible, probable or definite related to study drug were considered as study/treatment related. […]

HER1 = details: human catalytic domain of HER1; read-out: in vitro IC50; cited from earlier work
HER2 = details: human catalytic domain of HER2; read-out: in vitro IC50; cited from earlier work
HER4 = details: human catalytic domain of HER4; read-out: in vitro IC50; cited from earlier work
HER2/HER3 = test system: HER2/HER3; parameters: method as in unpublished data; details: ref unpublished data; cited from earlier work
[3] = 15 mg, All 15 mg doses, Cycle 1 Day 1, n = 23
[4] = 15 mg, All 15 mg doses, Cycle 2 Day 1, n = 18
[5] = 30 mg, All 30 mg doses, Cycle 1 Day 1, n = 17
[6] = 30 mg, All 30 mg doses, Cycle 2 Day 1 or last day of concomitant use, n =11
[7] = Dose-level 1: dacomitinib 30 mg QD + PD-0325901 2 mg BID, Cycle 1 Day 1, n = 6
[8] = Dose-level 1: dacomitinib 30 mg QD + PD-0325901 2 mg BID, Cycle 2 Day 1, n = 6
[9] = Dose-level 2: dacomitinib 15 mg QD + PD-0325901 3 mg BID, Cycle 1 Day 1, n = 6
[10] = Dose-level 2: dacomitinib 15 mg QD + PD-0325901 3 mg BID, Cycle 2 Day 1, n = 5
[11] = Dose-level 3: dacomitinib 15 mg QD + PD-0325901 4 mg BID, Cycle 1 Day 1, n = 2
[12] = Dose-level 3: dacomitinib 15 mg QD + PD-0325901 4 mg BID, Cycle 2 Day 1, n = 2
[13] = Dose-level 4: dacomitinib 15 mg QD + PD-0325901 5 mg BID, Cycle 1 Day 1, n = 3
[14] = Dose-level 4: dacomitinib 15 mg QD + PD-0325901 5 mg BID, Cycle 2 Day 1, n = 3
[15] = Dose-level 5: dacomitinib 15 mg QD + PD-0325901 6 mg BID, Cycle 1 Day 1, n = 8
[16] = Dose-level 5: dacomitinib 15 mg QD + PD-0325901 6 mg BID, Cycle 2 Day 1, n = 5
[17] = Dose-level 6: dacomitinib 30 mg (4/3) QD + PD-0325901 6 mg BID, Cycle 1 Day 1, n = 3
[18] = Dose-level 6: dacomitinib 30 mg (4/3) QD + PD-0325901 6 mg BID, last day of concomitant use of both drugs, n = 1
[19] = Dose-level 7: dacomitinib 30 mg (5/2) QD + PD-0325901 6 mg (5/2) BID, Cycle 1 Day 1, n = 3
[20] = Dose-level 7: dacomitinib 30 mg (5/2) QD + PD-0325901 6 mg (5/2) BID, last day of concomitant use of both drugs, n = 2
[21] = Dose-level 8: dacomitinib 30 mg (5/2) QD + PD-0325901 5 mg (5/2) BID, Cycle 1 Day 1, n = 5
[22] = Dose-level 8: dacomitinib 30 mg (5/2) QD + PD-0325901 5 mg (5/2) BID, last day of concomitant use of both drugs, n=2
[23] = Dose-level -1: dacomitinib 15 mg QD + PD-0325901 2 mg BID, Cycle 1 Day 1, n = 4
[24] = Dose-level -1: dacomitinib 15 mg QD + PD-0325901 2 mg BID, Cycle 2 Day 1, n = 3

Question: Which “plasma concentration versus preclinical target of 22 ng/ml” value ([1]; 15 mg dacomitinib doses, for a substantial number of patients) does the source give for COc1cc2ncnc(Nc3ccc(F)c(Cl)c3)c2cc1NC(=O)/C=C/CN1CCCCC1 [dacomitinib] here?
Answer: did not exceed the preclinical target

Question: And the “increase of exposure with dose” value ([1]; across dose levels)?
Answer: approximately dose-proportionally

Question: And the AUC(0-t) [1, 3]?
Answer: 122 ng·h/mL

Question: What about the Cmax [1, 3] of the same molecule?
Answer: 8.6 ng/mL

Question: What about the Tmax [1, 3] of the same molecule?
Answer: 7.6 h

Question: What about the AUC(0-t) [1, 4] of the same molecule?
Answer: 616 ng·h/mL

Question: And the Cmax [1, 4]?
Answer: 31.2 ng/mL

Question: What about the Tmax [1, 4] of the same molecule?
Answer: 7.2 h

Question: What about the AUC(0-t) [1, 5] of the same molecule?
Answer: 250 ng·h/mL

Question: And the Cmax [1, 5]?
Answer: 16 ng/mL

Question: What about the Tmax [1, 5] of the same molecule?
Answer: 8.3 h

Question: And the AUC(0-t) [1, 6]?
Answer: 909 ng·h/mL

Question: And the Cmax [1, 6]?
Answer: 51.7 ng/mL

Question: What about the Tmax [1, 6] of the same molecule?
Answer: 4.8 h

Question: And the AUC(0-t) [1, 7]?
Answer: 318 ng·h/mL

Question: And the Cmax [1, 7]?
Answer: 19.2 ng/mL

Question: What about the Tmax [1, 7] of the same molecule?
Answer: 7.5 h

Question: What about the AUC(0-t) [1, 8] of the same molecule?
Answer: 888 ng·h/mL

Question: What about the Cmax [1, 8] of the same molecule?
Answer: 47.4 ng/mL

Question: What about the Tmax [1, 8] of the same molecule?
Answer: 7.6 h

Question: And the AUC(0-t) [1, 9]?
Answer: 112 ng·h/mL

Question: And the Cmax [1, 9]?
Answer: 6.7 ng/mL

Question: And the Tmax [1, 9]?
Answer: 8.7 h

Question: And the AUC(0-t) [1, 10]?
Answer: 549 ng·h/mL

Question: What about the Cmax [1, 10] of the same molecule?
Answer: 26 ng/mL

Question: What about the Tmax [1, 10] of the same molecule?
Answer: 9.6 h

Question: And the AUC(0-t) [1, 11]?
Answer: 45 ng·h/mL

Question: And the Cmax [1, 11]?
Answer: 2.5 ng/mL

Question: What about the Tmax [1, 11] of the same molecule?
Answer: 12 h

Question: And the AUC(0-t) [1, 12]?
Answer: 262 ng·h/mL

Question: And the Cmax [1, 12]?
Answer: 25.7 ng/mL

Question: What about the Tmax [1, 12] of the same molecule?
Answer: 2 h

Question: And the AUC(0-t) [1, 13]?
Answer: 137 ng·h/mL

Question: And the Cmax [1, 13]?
Answer: 8.5 ng/mL

Question: And the Tmax [1, 13]?
Answer: 4.7 h

Question: What about the AUC(0-t) [1, 14] of the same molecule?
Answer: 654 ng·h/mL

Question: And the Cmax [1, 14]?
Answer: 33.5 ng/mL

Question: And the Tmax [1, 14]?
Answer: 5 h

Question: What about the AUC(0-t) [1, 15] of the same molecule?
Answer: 136 ng·h/mL

Question: What about the Cmax [1, 15] of the same molecule?
Answer: 11.4 ng/mL

Question: And the Tmax [1, 15]?
Answer: 7.9 h

Question: And the AUC(0-t) [1, 16]?
Answer: 747 ng·h/mL

Question: What about the Cmax [1, 16] of the same molecule?
Answer: 37.3 ng/mL

Question: And the Tmax [1, 16]?
Answer: 4.4 h

Question: And the AUC(0-t) [1, 17]?
Answer: 159 ng·h/mL

Question: What about the Cmax [1, 17] of the same molecule?
Answer: 11.1 ng/mL

Question: What about the Tmax [1, 17] of the same molecule?
Answer: 7.3 h

Question: And the AUC(0-t) [1, 18]?
Answer: 647 ng·h/mL

Question: What about the Cmax [1, 18] of the same molecule?
Answer: 32 ng/mL

Question: And the Tmax [1, 18]?
Answer: 8 h

Question: And the AUC(0-t) [1, 19]?
Answer: 290 ng·h/mL

Question: What about the Cmax [1, 19] of the same molecule?
Answer: 19.1 ng/mL

Question: And the Tmax [1, 19]?
Answer: 13.3 h

Question: And the AUC(0-t) [1, 20]?
Answer: 658 ng·h/mL

Question: And the Cmax [1, 20]?
Answer: 37.5 ng/mL

Question: And the Tmax [1, 20]?
Answer: 4.5 h

Question: What about the AUC(0-t) [1, 21] of the same molecule?
Answer: 200 ng·h/mL

Question: What about the Cmax [1, 21] of the same molecule?
Answer: 14.2 ng/mL

Question: What about the Tmax [1, 21] of the same molecule?
Answer: 6.6 h

Question: And the AUC(0-t) [1, 22]?
Answer: 789 ng·h/mL

Question: What about the Cmax [1, 22] of the same molecule?
Answer: 55.9 ng/mL

Question: What about the Tmax [1, 22] of the same molecule?
Answer: 4.5 h

Question: What about the AUC(0-t) [1, 23] of the same molecule?
Answer: 126 ng·h/mL

Question: What about the Cmax [1, 23] of the same molecule?
Answer: 7.9 ng/mL

Question: What about the Tmax [1, 23] of the same molecule?
Answer: 5.6 h

Question: And the AUC(0-t) [1, 24]?
Answer: 513 ng·h/mL

Question: And the Cmax [1, 24]?
Answer: 26.3 ng/mL

Question: And the Tmax [1, 24]?
Answer: 11 h

Question: What about the “increase of mean Cmax and AUC0–24h after multiple dosing (accumulation)” value ([1]; patients, combination treatment) of the same molecule?
Answer: 3- to 5 fold

Question: What about the “recommended Phase 2 dose (RP2D) / established maximum dose level in the combination with continuous dacomitinib dosing” value [2] of the same molecule?
Answer: 15 mg

Question: What about the IC50 (HER1) of the same molecule?
Answer: 0.006 µM

Question: And the IC50 (HER2)?
Answer: 0.0457 µM

Question: What about the IC50 (HER4) of the same molecule?
Answer: 0.074 µM

Question: What about the “IC50 for HER2/HER3 inhibition (preclinical target plasma concentration)” value (HER2/HER3) of the same molecule?
Answer: 0.022 µg/mL
